US8357676B2, “Ansamycin formulations and methods of use thereof” (Infinity Discovery, Inc., priority 2006, dated 2013)
Values after ≈ are worked out from the molar mass of the structure shown. Like-named read-outs stand apart in the source and are kept apart here.

How the values were obtained:
[1] = In vitro dissolution of amorphous solid dispersions in simulated intestinal fluid at 37° C.; format: physicochemical
Experimental: […] To each vial was added simulated intestinal fluid (5 mL) and each was shaken at 37° C. […] The samples were then diluted in MeOH and tested using UV method for solution concentration.

[2] = Equilibrium solubility in SIF; format: physicochemical; settings: for solubility: simulated intestinal fluid (SIF), 37 °C, pH 6.8, fassgf or other biorelevant, thermodynamic from solid, read-out: Eq. Solubility of active; for Crystalline 17-AG Equilibrium Solubility: 37° C., average values
Experimental: Solutions were placed at 37° C., and sample aliquots were removed at 24, 48, 72, & 96 hours. Sample aliquots were filtered (0.45 uM PVDF), diluted in SIF/MeOH and measured in triplicate on UV spectrometer.

[3] = Oral bioavailability of amorphous 17-AG/PVP dispersion vs crystalline 17-AG, single oral capsule dose; format: in vivo; settings: 15 mg/kg, beagle dogs
Experimental: A 12% 17-AG/PVP (w/w) dispersion was made utilizing rotary evaporation and characterized for purity, residual solvent level, and amorphous content as described, filled into HPMC capsules and dosed into dogs at a level of 15 mg/kg. Blood was collected pre-dose, at 15 minutes, at 30 minutes, 1 hour, 2 hours, 4 hours, 6 hours, 12 hours, and 24 hours post dose into tubes containing sodium heparin. Collected blood samples were immediately placed on wet ice and refrigerated centrifuge for isolation of plasma within 30 min of collection. Isolated plasma was saved in labeled screw cap freezer vials or eppendorf tubes and stored frozen (−70° C.) until analyzed for plasma 17-AG levels. The design of the study is as follows. A single group of dogs consisting of 2 males & 2 females was utilized for dosing, with a week washout in between each dose.

[4] = In vivo exposure of various oral formulations of 17-AG, single oral dose; settings: female beagle dogs
Experimental: The oral bioavailability of various formulations of the compound 17-AG was investigated by making various oral formulations, dosing beagle dogs and measuring 17-AG levels in blood plasma at various time points following a single oral dose. In addition, the effect of PVP on enhancing exposure was investigated by its addition to many of the tested formulations.
In brief, different crystalline, solvated, and amorphous forms of 17-AG were dosed either as filled capsules or as suspensions. In addition, various 17-AG solutions utilizing a range of different organic, anionic, & non-ionic components were dosed by oral gavage.
The crystalline, solvated, and amorphous forms of 17-AG were made as previously described and blended with either anhydrous lactose or PVP in a Turbula blender for 15 minutes. […]
The nanosuspension was made by levigating crystalline 17-AG by high shear in a microfluidizer (Microfluidics Corp, Model: M-110L) for 10-20 minutes in Tween-80. Mean particle size (d50: […]) was measured by laser light diffraction (Malvern Corp, Mastersizer 2000).
Blood was collected pre-dose, 15, 30 minutes, 1, 2, 4, and 8 hours post-dose into tubes containing sodium heparin. […] Isolated plasma was saved in labeled screw cap freezer vials or eppendorf tubes and stored frozen (−70° C.) until analyzed for plasma 17-AG levels. […]

[5] = 12% load analog in PVP K-30 amorphous dispersion, target conc 2 mg/mL, SIF 37° C., t = 5 min
[6] = 12% load analog in PVP K-30 dispersion, SIF 37° C., t = 5 min

SMILES	Supersaturated concentration of analog/polymer dispersions in SIF at 37° C. (t = 5 min) [1, 5] [mg/ml]	Fold increase relative to equilibrium solubility [1, 6] [x]	solubility [2] [µg/mL]	also measured
CO[C@H]1/C=C\C=C(/C)C(=O)NC2=CC(=O)C(N3CCC3)=C(C[C@@H](C)C[C@H](OC)[C@H](O)[C@@H](C)/C=C(\C)[C@@H]1OC(N)=O)C2=O [17-azetidinyl-G, 17-azetidinylgeldanamycin]	0.167	0	140 (≈ 239 µM)	–
CO[C@H]1/C=C\C=C(/C)C(=O)NC2=CC(=O)C(NCC3CC3)=C(C[C@@H](C)C[C@H](OC)[C@H](O)[C@@H](C)/C=C(\C)[C@@H]1OC(N)=O)C2=O [17-cyclopropylmethyl-AG, 17-cyclopropylmethylaminogeldanamycin]	0.0573	2	34 (≈ 56.7 µM)	–
COC1CC(C)CC2=C(N)C(=O)C=C(NC(=O)C(C)=CC=CC(OC)C(OC(N)=O)C(C)=CC(C)C1=O)C2=O (stereo not shown) [11-oxo-17-AG, 11-oxo-17-aminogeldanamycin]	0.395	0	–	Eq. Solubility of active ([2]; pH 6.8): 330 µg/mL
CO[C@H]1/C=C\C=C(/C)C(=O)NC2=CC(=O)C(NCCF)=C(C[C@@H](C)C[C@H](OC)[C@H](O)[C@@H](C)/C=C(\C)[C@@H]1OC(N)=O)C2=O [17-fluoroethyl-AG, 17-(fluoroethyl)aminogeldanamycin]	0.234	5	40 (≈ 67.6 µM)	–
CO[C@H]1/C=C\C=C(/C)C(=O)NC2=CC(=O)C(N)=C(C[C@@H](C)C[C@H](OC)[C@H](O)[C@@H](C)/C=C(\C)[C@@H]1OC(N)=O)C2=O [Crystalline 17-AG, 17-amino-geldanamycin]	–	–	–	exposure / oral bioavailability (in words) ([3]; single oral capsule): very low oral bioavailability; Plasma levels of 17-AG following dosing ([3]; uncoated HPMC capsule): below quantifiable limits; Crystalline 17-AG Equilibrium Solubility ([2]; SIF pH 6.8, 0% PVP): 4.1 µg/mL; Crystalline 17-AG Equilibrium Solubility ([2]; SIF pH 6.8, 0.5% PVP): 5.9 µg/mL; Crystalline 17-AG Equilibrium Solubility ([2]; SIF pH 6.8, 1.0% PVP): 6.5 µg/mL; Crystalline 17-AG Equilibrium Solubility ([2]; SIF pH 6.8, 2.5% PVP): 8.7 µg/mL; increase of equilibrium solubility of crystalline 17-AG ([2]; SIF pH 6.8, 5% PVP vs 0% PVP): ~3 fold; Crystalline 17-AG Equilibrium Solubility ([2]; SIF pH 6.8, 5.0% PVP): 11.2 µg/mL
CO[C@H]1/C=C\C=C(/C)C(=O)NC2=CC(=O)C(N)=C(C[C@@H](C)C[C@H](OC)[C@H](O)[C@@H](C)/C=C(\C)[C@@H]1OC(N)=O)C2=O [amorphous 17-AG, 17-amino-geldanamycin]	–	–	–	exposure after oral dosing (in words) [4]: significant exposure
CO[C@H]1C[C@H](C)CC2=C(N)C(=O)C=C(NC(=O)/C(C)=C/C=C\[C@H](OC)[C@@H](OC(N)=O)/C(C)=C/[C@H](C)C1OC(C)=O)C2=O (stereo partly shown) [11-acetyl-17-AG, 11-acetyl-17-aminogeldanamycin]	0.167	2	88 (≈ 150 µM)	–
CO[C@H]1/C=C\C=C(/C)C(=O)NC2=CC(=O)C(NCc3ccccc3)=C(C[C@@H](C)C[C@H](OC)[C@H](O)[C@@H](C)/C=C(\C)[C@@H]1OC(N)=O)C2=O [17-benzyl-AG, 17-benzylaminogeldanamycin]	–	–	15 (≈ 23.6 µM)	Supersaturated concentration of analog/polymer dispersions in SIF at 37° C. (t = 5 min) [1]: 0.165 mg/ml (10x); Supersaturated concentration in SIF at 5 min ([1]; 12% load analog in PVP K-30 dispersion, SIF 37° C., t = 5 min, the values are: supersaturated concentration in SIF at 5 min): 0.165 mg/mL
CO[C@H]1/C=C\C=C(/C)C(=O)NC2=CC(=O)C(N)=C(C[C@@H](C)C[C@H](OC)[C@H](O)[C@@H](C)/C=C(\C)[C@@H]1OC(N)=O)C2=O [EtOAc Solvate of 17-AG, 17-amino-geldanamycin]	–	–	–	exposure after oral dosing (in words) [4]: low exposure
CO[C@H]1/C=C\C=C(/C)C(=O)NC2=CC(=O)C(NC(C)=O)=C(C[C@@H](C)C[C@H](OC)[C@H](O)[C@@H](C)/C=C(\C)[C@@H]1OC(N)=O)C2=O [17-acetyl-AG, 17-acetylgeldanamycin]	1.568	≥ 5	350 (≈ 596 µM)	–
